Reference: PubChem BioAssay AID2060617 (Molecular Pharmacology Branch, DTP, NCI, 2025)

Tested on: 485368-065-R4-J2-PDC spheroids with HUVEC/MSC, viability
Assay: Anticancer human tumor 485368-065-R4-J2-PDC patient-derived pancreatic carcinoma cell line growth inhibition [CLK]
Conditions: for IC50: curve of first compound; for viability, T/C: stronger effect = lower value
In short: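 Multi-cell-type spheroids combined patient-derived tumor cells with HUVEC endothelial cells and human mesenchymal stem cells. Paired agents were dosed in half-log steps down from about clinical Cmax, or from 10 microM where Cmax was unknown.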

[1] = second compound 0.0316 µM, first compound 0.00949 µM
[2] = second compound 0.0316 µM, first compound 0.03 µM
[3] = second compound 0.0316 µM, first compound 0.0949 µM
[4] = second compound 0.0316 µM, first compound 0.3 µM
[5] = second compound 0.1 µM, first compound 0.00949 µM
[6] = second compound 0.1 µM, first compound 0.03 µM
[7] = second compound 0.1 µM, first compound 0.0949 µM
[8] = second compound 0.1 µM, first compound 0.3 µM
[9] = second compound 0.316 µM, first compound 0.00949 µM
[10] = second compound 0.316 µM, first compound 0.03 µM
[11] = second compound 0.316 µM, first compound 0.0949 µM
[12] = second compound 0.316 µM, first compound 0.3 µM
[13] = second compound 1 µM, first compound 0.00949 µM
[14] = second compound 1 µM, first compound 0.03 µM
[15] = second compound 1 µM, first compound 0.0949 µM
[16] = second compound 1 µM, first compound 0.3 µM
[17] = second compound 3.16 µM, first compound 0.00949 µM
[18] = second compound 3.16 µM, first compound 0.03 µM
[19] = second compound 3.16 µM, first compound 0.0949 µM
[20] = second compound 3.16 µM, first compound 0.3 µM
[21] = second compound 10 µM, first compound 0.00949 µM
[22] = second compound 10 µM, first compound 0.03 µM
[23] = second compound 10 µM, first compound 0.0949 µM
[24] = second compound 10 µM, first compound 0.3 µM
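Note: spheroids exposed to compounds for seven days.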
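Throughout, for viability, T/C: 100% = DMSO vehicle control wells.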

## C=CC(=O)Nc1cc(Nc2nccc(-c3cn(C)c4ccccc34)n2)c(OC)cc1N(C)CCN(C)C + CNC(=O)c1ccc(Nc2nc(OC3CCCC3)c3c(-c4ccc5nc(C)oc5c4)c[nH]c3n2)c(OC)c1
Second compound 0.0316 µM
  IC50: > 0.3 µM
Second compound 0.1 µM
  IC50: > 0.3 µM
Second compound 0.316 µM
  IC50: > 0.3 µM
Second compound 1 µM
  IC50: > 0.3 µM
Second compound 3.16 µM
  IC50: > 0.3 µM
Second compound 10 µM
  IC50: > 0.3 µM
Second compound 0.0316 µM, first compound 0.000949 µM
  viability, T/C: 84.6%
Second compound 0.0316 µM, first compound 0.003 µM
  viability, T/C: 90%
[1]
  viability, T/C: 88.8%
[2]
  viability, T/C: 93.4%
[3]
  viability, T/C: 101%
[4]
  viability, T/C: 87.4%
Second compound 0.1 µM, first compound 0.000949 µM
  viability, T/C: 90.1%
Second compound 0.1 µM, first compound 0.003 µM
  viability, T/C: 89%
[5]
  viability, T/C: 95.6%
[6]
  viability, T/C: 90.1%
[7]
  viability, T/C: 92.2%
[8]
  viability, T/C: 98.4%
Second compound 0.316 µM, first compound 0.000949 µM
  viability, T/C: 82%
Second compound 0.316 µM, first compound 0.003 µM
  viability, T/C: 85.1%
[9]
  viability, T/C: 81.6%
[10]
  viability, T/C: 79.5%
[11]
  viability, T/C: 83%
[12]
  viability, T/C: 78%
Second compound 1 µM, first compound 0.000949 µM
  viability, T/C: 78.4%
Second compound 1 µM, first compound 0.003 µM
  viability, T/C: 72.6%
[13]
  viability, T/C: 81%
[14]
  viability, T/C: 79.4%
[15]
  viability, T/C: 73.5%
[16]
  viability, T/C: 70.8%
Second compound 3.16 µM, first compound 0.000949 µM
  viability, T/C: 69.4%
Second compound 3.16 µM, first compound 0.003 µM
  viability, T/C: 70.9%
[17]
  viability, T/C: 66.6%
[18]
  viability, T/C: 68.4%
[19]
  viability, T/C: 66.8%
[20]
  viability, T/C: 68.7%
Second compound 10 µM, first compound 0.000949 µM
  viability, T/C: 66.5%
Second compound 10 µM, first compound 0.003 µM
  viability, T/C: 67.6%
[21]
  viability, T/C: 70.1%
[22]
  viability, T/C: 67.3%
[23]
  viability, T/C: 68.9%
[24]
  viability, T/C: 58.6%

## NC(=O)C(=Cn1cnc(-c2cc(C(F)(F)F)cc(C(F)(F)F)c2)n1)c1cncnc1 + CNC(=O)c1ccc(Nc2nc(OC3CCCC3)c3c(-c4ccc5nc(C)oc5c4)c[nH]c3n2)c(OC)c1
Second compound 0.0316 µM
  IC50: > 3 µM
Second compound 0.1 µM
  IC50: > 3 µM
Second compound 0.316 µM
  IC50: > 3 µM
Second compound 1 µM
  IC50: > 3 µM
Second compound 3.16 µM
  IC50: > 3 µM
Second compound 10 µM
  IC50: 2.59 µM
[1]
  viability, T/C: 95%
[2]
  viability, T/C: 130%
[3]
  viability, T/C: 179%
[4]
  viability, T/C: 195%
Second compound 0.0316 µM, first compound 0.949 µM
  viability, T/C: 176%
Second compound 0.0316 µM, first compound 3 µM
  viability, T/C: 128%
[5]
  viability, T/C: 96.4%
[6]
  viability, T/C: 108%
[7]
  viability, T/C: 173%
[8]
  viability, T/C: 177%
Second compound 0.1 µM, first compound 0.949 µM
  viability, T/C: 171%
Second compound 0.1 µM, first compound 3 µM
  viability, T/C: 97.5%
[9]
  viability, T/C: 98.1%
[10]
  viability, T/C: 116%
[11]
  viability, T/C: 160%
[12]
  viability, T/C: 154%
Second compound 0.316 µM, first compound 0.949 µM
  viability, T/C: 139%
Second compound 0.316 µM, first compound 3 µM
  viability, T/C: 74.3%
[13]
  viability, T/C: 82.2%
[14]
  viability, T/C: 114%
[15]
  viability, T/C: 141%
[16]
  viability, T/C: 132%
Second compound 1 µM, first compound 0.949 µM
  viability, T/C: 99.4%
Second compound 1 µM, first compound 3 µM
  viability, T/C: 62.5%
[17]
  viability, T/C: 80.3%
[18]
  viability, T/C: 114%
[19]
  viability, T/C: 123%
[20]
  viability, T/C: 113%
Second compound 3.16 µM, first compound 0.949 µM
  viability, T/C: 87.6%
Second compound 3.16 µM, first compound 3 µM
  viability, T/C: 59.3%
[21]
  viability, T/C: 69.4%
[22]
  viability, T/C: 98.3%
[23]
  viability, T/C: 124%
[24]
  viability, T/C: 98.5%
Second compound 10 µM, first compound 0.949 µM
  viability, T/C: 80.8%
Second compound 10 µM, first compound 3 µM
  viability, T/C: 45.4%

## Nc1ccccc1NC(=O)c1ccc(CNC(=O)OCc2cccnc2)cc1 + CNC(=O)c1ccc(Nc2nc(OC3CCCC3)c3c(-c4ccc5nc(C)oc5c4)c[nH]c3n2)c(OC)c1
Second compound 0.0316 µM
  IC50: 6.71 µM
Second compound 0.1 µM
  IC50: 6.55 µM
Second compound 0.316 µM
  IC50: 6.73 µM
Second compound 1 µM
  IC50: 5.72 µM
Second compound 3.16 µM
  IC50: 5.1 µM
Second compound 10 µM
  IC50: 5.51 µM
Second compound 0.0316 µM, first compound 0.0316 µM
  viability, T/C: 89.6%
Second compound 0.0316 µM, first compound 0.1 µM
  viability, T/C: 96.7%
Second compound 0.0316 µM, first compound 0.316 µM
  viability, T/C: 94.7%
Second compound 0.0316 µM, first compound 1 µM
  viability, T/C: 90.3%
Second compound 0.0316 µM, first compound 3.16 µM
  viability, T/C: 82.8%
Second compound 0.0316 µM, first compound 10 µM
  viability, T/C: 32.4%
Second compound 0.1 µM, first compound 0.0316 µM
  viability, T/C: 92.1%
Second compound 0.1 µM, first compound 0.1 µM
  viability, T/C: 93.8%
Second compound 0.1 µM, first compound 0.316 µM
  viability, T/C: 102%
Second compound 0.1 µM, first compound 1 µM
  viability, T/C: 87.3%
Second compound 0.1 µM, first compound 3.16 µM
  viability, T/C: 81.7%
Second compound 0.1 µM, first compound 10 µM
  viability, T/C: 31.9%
Second compound 0.316 µM, first compound 0.0316 µM
  viability, T/C: 74.4%
Second compound 0.316 µM, first compound 0.1 µM
  viability, T/C: 79.8%
Second compound 0.316 µM, first compound 0.316 µM
  viability, T/C: 83.9%
Second compound 0.316 µM, first compound 1 µM
  viability, T/C: 89.7%
Second compound 0.316 µM, first compound 3.16 µM
  viability, T/C: 83.2%
Second compound 0.316 µM, first compound 10 µM
  viability, T/C: 33.1%
Second compound 1 µM, first compound 0.0316 µM
  viability, T/C: 86%
Second compound 1 µM, first compound 0.1 µM
  viability, T/C: 80.8%
Second compound 1 µM, first compound 0.316 µM
  viability, T/C: 71.3%
Second compound 1 µM, first compound 1 µM
  viability, T/C: 77.9%
Second compound 1 µM, first compound 3.16 µM
  viability, T/C: 70.6%
Second compound 1 µM, first compound 10 µM
  viability, T/C: 30.6%
Second compound 3.16 µM, first compound 0.0316 µM
  viability, T/C: 71.5%
Second compound 3.16 µM, first compound 0.1 µM
  viability, T/C: 74.8%
Second compound 3.16 µM, first compound 0.316 µM
  viability, T/C: 72.2%
Second compound 3.16 µM, first compound 1 µM
  viability, T/C: 65.9%
Second compound 3.16 µM, first compound 3.16 µM
  viability, T/C: 65.6%
Second compound 3.16 µM, first compound 10 µM
  viability, T/C: 29.3%
Second compound 10 µM, first compound 0.0316 µM
  viability, T/C: 67.6%
Second compound 10 µM, first compound 0.1 µM
  viability, T/C: 73.9%
Second compound 10 µM, first compound 0.316 µM
  viability, T/C: 67.8%
Second compound 10 µM, first compound 1 µM
  viability, T/C: 73.6%
Second compound 10 µM, first compound 3.16 µM
  viability, T/C: 69.8%
Second compound 10 µM, first compound 10 µM
  viability, T/C: 28.6%
